From publication PMC4186383, “Evaluation of radical scavenging properties of shikonin” (Journal of Clinical Biochemistry and Nutrition, 2014)

Legend:
[1] = biological target: T1, Nox2 (NADPH oxidase 2, flavocytochrome b558) (Sus scrofa, UniProt P52649); test: cell-free reconstitution assay, SOD-sensitive cytochrome c reduction; assay type: biochemical
T1 construct: gene CYBB; detergent-solubilized resting neutrophil membranes (1 pmol Nox2/flavocytochrome b558) plus cytosol; with cytosolic components of the Nox2 system

[2] = biological target: T1, Nox2 (NADPH oxidase 2, flavocytochrome b558); test: cell-free reconstitution assay, NADPH oxidation; assay type: biochemical

Row | Compound | IC50 [1] [µM] | IC50 [2] [µM]
1 | CC(C)=CC[C@H](O)C1=CC(=O)c2c(O)ccc(O)c2C1=O [alkannin] | 2.2 | 
2 | CC(C)=CC[C@@H](O)C1=CC(=O)c2c(O)ccc(O)c2C1=O [shikonin] |  | 1.1
